Patent US10138282B2, “Peptide antagonist of LL-37” (INDIANA UNIVERSITY RESEARCH AND TECHNOLOGY CORPORATION, priority 2014, dated 2018)

Legend:
Format in all cases: cell-based, human
TLR3 signaling = test: IL-6 production (ELISA) in BEAS-2B cells induced with poly(I:C); details: BEAS-2B cells
Experimental: (§1) IL-6 production was quantified by ELISA using the OptEIA™ kit (BD Biosciences). A typical assay used 2×10^4 BEAS-2B cells/well grown for 24 h in flat bottom 96-well plates. Poly(I:C) was added to a final concentration of 0.13 μg/ml. Antimicrobial peptides were added to the cell culture medium to a final concentration of 3 μM unless specified otherwise. All ELISA results shown were performed in triplicate and in at least three independent experiments.
To better define how residues in LL-37 contribute to function, several variants derived from LL-37 were tested for: 1) repression of TLR4 signaling by LPS, 2) enhancement of TLR3 signaling by poly(I:C), and 3) binding to LL-37. Signaling by TLR3 and TLR4 were monitored using ELISA to detect IL-6 secreted into the medium of BEAS-2B cells.

Reovirus dsRNA, Reo S4 = test: IL-6 production in BEAS-2B cells in the presence of Reovirus dsRNA Reo S4
Experimental: as §1
Herein, we analyzed the LL-37 orthologs from Rhesus monkeys, pig, sheep, guinea pigs, rabbit, as well as mouse (FIG. 14A). All peptides were chemically synthesized and assayed for the induction of inflammatory cytokine IL-6 in the presence of the double-stranded RNA mimic, poly(I:C) or the Reovirus dsRNA, Reo S4 (FIGS. 14B and 14C). […] Importantly, all LL-37 orthologs tested had the ability to reduce IL-6 production in response to LPS (FIG. 14E).

Toll-like receptor 9 = test: IL-6 production in BEAS-2B cells in the presence of ssDNA ligand ODN

## PAMP-37: LL-37 ortholog from pig, SEQ ID NO: 22 (GLLSRLRDFLSDRGRRLGEKIERIGQKIKDLSEFFQS; (1)..(37) Pig PMAP-37; listed as Sus scrofa)
TLR3 signaling
  Enhancement of TLR3 signaling / poly(I:C)-induced IL-6, in words: failed to enhance signaling
Reovirus dsRNA, Reo S4
  Enhancement of IL-6 production / signaling by Reo S4, in words: failed to enhance signaling
Toll-like receptor 9
  Induction of signaling by the ssDNA ligand for Toll-like receptor 9, in words: failed to induce signaling
